In paper PMC6411751, “Use of machine learning to identify novel, behaviorally active antagonists of the insect odorant receptor co-receptor (Orco) subunit” (Scientific Reports, 2019):

What was measured:
OR expressing neurons = test system: OR expressing neurons; parameters: method as in PMID 22272331; conditions: directly injected into sensilla at ≥100 µM; cited from earlier work
Agam\Orco = biological target: T1, Agam\Orco (Anopheles gambiae, UniProt Q7QCC7); experiment: cell-based; format: cell-based
T1 construct: expressed in transfected cells; host or cells: Xenopus laevis oocytes injected with capped cRNA (plasmid pT7TS, gift of L. Zwiebel)
T1 sequence (Q7QCC7 1-478): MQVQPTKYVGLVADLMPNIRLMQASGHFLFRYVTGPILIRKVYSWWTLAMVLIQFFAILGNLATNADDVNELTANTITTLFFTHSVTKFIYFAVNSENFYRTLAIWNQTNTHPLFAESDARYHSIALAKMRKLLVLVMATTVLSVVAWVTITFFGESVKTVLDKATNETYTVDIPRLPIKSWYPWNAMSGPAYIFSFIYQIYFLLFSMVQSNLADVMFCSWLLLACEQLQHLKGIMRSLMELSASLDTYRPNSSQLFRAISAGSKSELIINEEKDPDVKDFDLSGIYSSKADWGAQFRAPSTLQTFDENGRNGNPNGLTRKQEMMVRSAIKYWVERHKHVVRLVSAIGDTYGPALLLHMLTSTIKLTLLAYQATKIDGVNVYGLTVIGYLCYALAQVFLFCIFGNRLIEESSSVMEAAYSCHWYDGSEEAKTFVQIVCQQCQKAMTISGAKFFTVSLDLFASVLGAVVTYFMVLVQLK
Protocol: A 2 hr incubation with collagenase B (Roche) was used to remove follicle cells from oocytes. Capped cRNA for Agam\Orco was synthesized using mMessage mMachine kits (Thermo Fisher Scientific). 25 ng of cRNA was injected into stage V–VI oocytes, followed by a 2–5 day incubation at 18 °C in Barth’s saline (in mM: 88 NaCl, 1 KCl, 2.4 NaHCO3, 0.3 CaNO3, 0.41 CaCl2, 0.82 MgSO4, 15 HEPES, pH 7.4, and 0.05 g/L tetracycline, 0.05 g/L ciprofloxacin, 0.1 g/L amikacin) prior to electrophysiological recordings.
An automated parallel electrophysiology system (OpusExpress 6000 A, Molecular Devices) was used to record Orco agonist (OLC12) or odorant induced currents under two-electrode voltage clamp. Oocytes were perfused with ND96 (in mM: 96 NaCl, 2 KCl, 1 CaCl2, 1 MgCl2, 5 HEPES, pH 7.4). DMSO was used to prepare 1 M or 100 mM stock solutions of test compounds, which were then diluted in ND96 on the day of the experiment. Compounds were applied at a flow rate of 1.0 mL/min, with extensive washing in ND96 at 4.6 mL/min between applications. Micropipettes with resistances of 0.2–2.0 MΩ were filled with 3 M KCl. The holding potential was −70 mV. Current responses were filtered (4-pole, Bessel, low pass) at 20 Hz (−3 db) and sampled at 100 Hz. OpusXpress 1.1 software (Molecular Devices) was used to capture and store current responses.
To measure antagonist activity at Orco, Agam\Orco was activated by the Orco agonist OLC12[34]. […] The current response to OLC12 in the presence of antagonist candidate was compared to the mean of the preceding two responses to OLC12 alone and presented as a percentage[34],[35]. This value was then normalized to the value obtained when the assay was run in the absence of antagonist candidate (sham).
During development of the training panel (Fig. 2, Tables S1 and S2), all compounds not previously known to be Orco antagonists were tested at a concentration of 3 mM. […] Concentration-inhibition curves were constructed for all compounds eliciting >20 percent inhibition at 3 mM. The same concentration and criteria were used during screening of predicted actives (Fig. 4D) and predicted inactives (Fig. 5C).
Clampfit 9.1 software (Molecular Devices) was used to perform initial analysis of electrophysiological data. Prism 7 (Graphpad) was used for curve fitting. Concentration-inhibition data were fit to the equation: I = Imax/(1 + (X/IC50)^n) where I represents the current response at a given concentration of inhibitor, X; Imax is the maximal response in the absence of inhibitor; IC50 is the concentration of inhibitor present that allows a half maximal response from OLC12; n is the apparent Hill coefficient.

oocyte = experiment: Oocyte toxicity seen during Orco antagonist screening; conditions: at concentrations higher than 300 µM
Description: Figure 4 (A) Scatter plot of predictions (Bayesian scores) from model A and model B for the 138 highest probability predicted actives. […] (B) Cluster membership of the 138 most likely predicted actives and distribution of experimentally tested compounds. […] (D) Antagonist activity of 39 predicted Orco antagonists, as well as the activity of 16 known Orco antagonists (denoted by a dot (•) preceding the compound name). […] Data are presented as mean ± SEM (n = 3–10).

Dmel\Or13a = test system: Dmel\Or13a; parameters: method as in ref 1 Münch, D., Galizia, C.G. DoOR 2.0 (2016); conditions: ref 1 Münch, D., Galizia, C.G. DoOR 2.0 (2016); cited from earlier work
Dmel\Or67a = test system: Dmel\Or67a; parameters: method as in ref 1 Münch, D., Galizia, C.G. DoOR 2.0 (2016); conditions: ref 1 Münch, D., Galizia, C.G. DoOR 2.0 (2016); cited from earlier work
Dmel\Or85b = test system: Dmel\Or85b; parameters: method as in ref 1 Münch, D., Galizia, C.G. DoOR 2.0 (2016); conditions: ref 1 Münch, D., Galizia, C.G. DoOR 2.0 (2016); cited from earlier work
[1] = test system: Orco subunit of the Hessian fly (Mayetiola destructor); conditions: cited from earlier work

CCn1c(SCC(=O)N2c3ccccc3Sc3ccccc32)nnc1-c1ccco1 [VU0183254]
spontaneous firing rate of OR expressing neurons (OR expressing neurons): reduce the spontaneous firing rate

Cc1ccc(C(C)C)cc1O [carvacrol]
decrease in potency relative to 3I6MC (Agam\Orco; Agam\Orco IC50 compared with 3I6MC): 3.6 fold
IC50 (Agam\Orco; Table S1, training actives, Agam\Orco activated by 30 µM OLC12, mean ± SEM (n = 3-8), read-out: IC50): 146 ± 21 µM
oocyte toxicity (oocyte): oocyte toxicity at higher concentrations

C=CC(C)(O)CCC=C(C)C (centres unmarked) [linalool]
scaled response from DoOR (max = 1.0) (Dmel\Or13a): 0.164
scaled response from DoOR (max = 1.0) (Dmel\Or67a): 0.158
scaled response from DoOR (max = 1.0) (Dmel\Or85b): 0.163

CCc1ccc(NC(=O)CSc2nnc(-c3cccnc3)n2CC)cc1 [VUAA1, N-(4-ethylphenyl)-2-((4-ethyl-5-(3-pyridinyl)-4H-1,2,4-triazol-3-yl)thio)acetamide]
sensitivity of Orco subunit to the agonist [1]: insensitive
